Source: PMC8550792, “Evolution of kinase polypharmacology across HSP90 drug discovery” (Cell Chemical Biology, 2021)
Where two headings read alike, the source gives them in different places.

How the values were obtained:
Test in all cases: biochemical
Format in all cases: biochemical
382 unique human kinases [1] = molecular target: T1, 382 unique human kinases (Homo sapiens, UniProt Q00535); details: for remaining activity at 10 µM: read-out: % Enzyme Activity (relative to DMSO controls)
T1 construct: purchased Reaction Biology (HotSpot contract assay)
T1 sequence (Q00535 whole entry): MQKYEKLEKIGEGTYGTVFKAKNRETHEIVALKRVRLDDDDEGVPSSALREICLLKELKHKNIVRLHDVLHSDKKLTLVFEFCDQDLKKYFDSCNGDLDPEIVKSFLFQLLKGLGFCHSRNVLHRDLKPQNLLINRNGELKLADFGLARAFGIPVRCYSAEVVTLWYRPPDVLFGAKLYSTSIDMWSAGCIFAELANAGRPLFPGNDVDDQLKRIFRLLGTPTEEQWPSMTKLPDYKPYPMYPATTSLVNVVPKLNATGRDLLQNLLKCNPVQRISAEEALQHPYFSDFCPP

382 unique human kinases [2] = molecular target: T2, 382 unique human kinases (Homo sapiens, UniProt P08581); details: kinase c-MET, compound 10 uM; for remaining activity at 10 µM: read-out: % Enzyme Activity (relative to DMSO controls)
T2 construct: purchased Reaction Biology (HotSpot contract assay)

382 unique human kinases [3] = molecular target: T3, 382 unique human kinases (Homo sapiens, UniProt Q13554); details: kinase CAMK2b, compound 10 uM; for remaining activity at 10 µM: read-out: % Enzyme Activity (relative to DMSO controls)
T3 construct: purchased Reaction Biology (HotSpot contract assay)
T3 sequence (Q13554 whole entry): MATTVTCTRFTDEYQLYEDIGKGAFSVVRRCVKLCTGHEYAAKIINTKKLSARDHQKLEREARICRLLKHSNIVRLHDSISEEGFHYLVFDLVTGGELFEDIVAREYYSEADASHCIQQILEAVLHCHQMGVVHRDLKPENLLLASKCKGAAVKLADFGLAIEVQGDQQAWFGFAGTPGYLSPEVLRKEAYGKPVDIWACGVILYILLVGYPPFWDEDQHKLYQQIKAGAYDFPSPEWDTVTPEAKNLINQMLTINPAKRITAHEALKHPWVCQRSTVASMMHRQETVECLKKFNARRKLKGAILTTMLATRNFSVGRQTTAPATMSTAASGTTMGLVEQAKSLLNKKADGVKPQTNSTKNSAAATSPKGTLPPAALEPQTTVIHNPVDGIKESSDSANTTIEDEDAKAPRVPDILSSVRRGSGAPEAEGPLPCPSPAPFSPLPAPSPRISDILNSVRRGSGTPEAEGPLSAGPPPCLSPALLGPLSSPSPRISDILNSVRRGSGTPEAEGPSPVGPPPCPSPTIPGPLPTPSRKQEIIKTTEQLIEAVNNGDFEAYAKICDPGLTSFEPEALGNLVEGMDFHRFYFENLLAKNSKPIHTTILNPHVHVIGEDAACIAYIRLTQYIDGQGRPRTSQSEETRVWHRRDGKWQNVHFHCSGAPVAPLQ

382 unique human kinases [4] = molecular target: T4, 382 unique human kinases (Homo sapiens, UniProt P00533, T790M); details: kinase EGFR (T790M), compound 10 uM; for remaining activity at 10 µM: read-out: % Enzyme Activity (relative to DMSO controls)
T4 construct: purchased Reaction Biology (HotSpot contract assay)

382 unique human kinases [5] = molecular target: T5, 382 unique human kinases (Homo sapiens, UniProt P52333); details: JAK3, 10 uM; for remaining activity at 10 µM: read-out: % Enzyme Activity (relative to DMSO controls)
T5 construct: purchased Reaction Biology (HotSpot contract assay)
T5 sequence (P52333 1-1124): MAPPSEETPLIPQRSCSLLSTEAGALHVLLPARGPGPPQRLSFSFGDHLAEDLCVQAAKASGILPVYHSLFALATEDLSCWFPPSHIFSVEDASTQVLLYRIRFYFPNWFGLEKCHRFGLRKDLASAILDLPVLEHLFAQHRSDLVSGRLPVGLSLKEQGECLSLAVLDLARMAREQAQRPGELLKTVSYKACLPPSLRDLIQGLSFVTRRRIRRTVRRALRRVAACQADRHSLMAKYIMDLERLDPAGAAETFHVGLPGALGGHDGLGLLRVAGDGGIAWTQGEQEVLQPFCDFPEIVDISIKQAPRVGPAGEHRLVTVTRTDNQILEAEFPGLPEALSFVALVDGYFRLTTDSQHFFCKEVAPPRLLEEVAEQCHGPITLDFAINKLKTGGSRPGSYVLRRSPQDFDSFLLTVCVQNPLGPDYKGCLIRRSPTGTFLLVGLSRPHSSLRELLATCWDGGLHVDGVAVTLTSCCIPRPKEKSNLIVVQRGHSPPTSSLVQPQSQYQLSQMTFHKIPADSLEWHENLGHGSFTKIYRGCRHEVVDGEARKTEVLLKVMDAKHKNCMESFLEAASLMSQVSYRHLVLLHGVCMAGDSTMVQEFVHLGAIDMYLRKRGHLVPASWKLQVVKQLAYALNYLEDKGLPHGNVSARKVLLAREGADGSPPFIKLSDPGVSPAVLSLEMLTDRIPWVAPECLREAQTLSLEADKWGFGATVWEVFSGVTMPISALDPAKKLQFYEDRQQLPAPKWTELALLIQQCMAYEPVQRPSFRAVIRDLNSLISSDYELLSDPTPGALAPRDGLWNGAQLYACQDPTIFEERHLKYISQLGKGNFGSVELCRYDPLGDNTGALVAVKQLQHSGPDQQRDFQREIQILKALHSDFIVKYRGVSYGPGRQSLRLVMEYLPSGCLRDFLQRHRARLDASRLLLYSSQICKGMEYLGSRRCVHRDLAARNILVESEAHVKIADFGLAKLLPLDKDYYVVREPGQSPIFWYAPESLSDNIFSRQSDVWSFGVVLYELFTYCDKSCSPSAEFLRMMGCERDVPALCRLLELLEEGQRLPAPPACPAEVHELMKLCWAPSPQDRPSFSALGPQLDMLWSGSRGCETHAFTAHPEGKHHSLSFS

382 unique human kinases [6] = molecular target: T6, 382 unique human kinases (Homo sapiens, UniProt P51812, L608F); details: RSK2 (L608F), [ATP] 10 µM, compound 10 uM; for remaining activity at 10 µM: read-out: % Enzyme Activity (relative to DMSO controls)
T6 construct: purchased Reaction Biology (HotSpot contract assay)
T6 sequence (P51812 whole entry L608F): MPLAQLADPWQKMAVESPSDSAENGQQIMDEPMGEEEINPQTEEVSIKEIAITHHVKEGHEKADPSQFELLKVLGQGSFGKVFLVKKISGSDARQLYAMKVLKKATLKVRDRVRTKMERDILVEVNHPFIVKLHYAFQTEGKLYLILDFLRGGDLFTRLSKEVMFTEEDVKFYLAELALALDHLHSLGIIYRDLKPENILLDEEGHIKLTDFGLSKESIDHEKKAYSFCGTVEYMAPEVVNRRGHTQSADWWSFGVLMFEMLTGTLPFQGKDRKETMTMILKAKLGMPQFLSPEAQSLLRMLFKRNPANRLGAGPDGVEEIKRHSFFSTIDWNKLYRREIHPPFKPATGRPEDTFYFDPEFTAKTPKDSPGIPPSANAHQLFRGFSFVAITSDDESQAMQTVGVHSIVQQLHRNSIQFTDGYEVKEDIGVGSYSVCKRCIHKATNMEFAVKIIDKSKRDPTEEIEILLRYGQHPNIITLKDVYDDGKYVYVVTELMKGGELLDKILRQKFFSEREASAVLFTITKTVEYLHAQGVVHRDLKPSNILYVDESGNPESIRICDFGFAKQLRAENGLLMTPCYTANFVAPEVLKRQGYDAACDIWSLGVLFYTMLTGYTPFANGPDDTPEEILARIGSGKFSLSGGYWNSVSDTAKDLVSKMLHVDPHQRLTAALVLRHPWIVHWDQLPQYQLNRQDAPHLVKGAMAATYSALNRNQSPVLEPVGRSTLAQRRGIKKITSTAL

382 unique human kinases [7] = molecular target: T7, 382 unique human kinases (Homo sapiens, UniProt P08581, V1092I); details: c-MET (V1092I), 10 uM; for remaining activity at 10 µM: read-out: % Enzyme Activity (relative to DMSO controls)
T7 construct: purchased Reaction Biology (HotSpot contract assay)

382 unique human kinases [8] = molecular target: T8, 382 unique human kinases (Homo sapiens, UniProt Q52WX2); details: SBK1, 10 uM; for remaining activity at 10 µM: read-out: % Enzyme Activity (relative to DMSO controls)
T8 construct: purchased Reaction Biology (HotSpot contract assay)
T8 sequence (Q52WX2 whole entry): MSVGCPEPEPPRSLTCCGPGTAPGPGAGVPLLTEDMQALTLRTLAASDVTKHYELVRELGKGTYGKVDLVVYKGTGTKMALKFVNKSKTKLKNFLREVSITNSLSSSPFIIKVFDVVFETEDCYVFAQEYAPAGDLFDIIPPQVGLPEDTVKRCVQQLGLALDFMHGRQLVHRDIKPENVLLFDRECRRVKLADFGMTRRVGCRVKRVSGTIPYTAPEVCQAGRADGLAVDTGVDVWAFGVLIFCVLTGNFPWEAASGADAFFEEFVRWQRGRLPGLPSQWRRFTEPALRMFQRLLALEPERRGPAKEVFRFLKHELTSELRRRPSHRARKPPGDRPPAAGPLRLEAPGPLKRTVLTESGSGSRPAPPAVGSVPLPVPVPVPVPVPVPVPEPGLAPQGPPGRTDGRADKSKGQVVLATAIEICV

382 unique human kinases [9] = molecular target: T9, 382 unique human kinases (Homo sapiens, UniProt Q6VAB6, R676S); details: KSR2 (R676S), 10 uM; for remaining activity at 10 µM: read-out: % Enzyme Activity (relative to DMSO controls)
T9 construct: purchased Reaction Biology (HotSpot contract assay)
T9 sequence (Q6VAB6 1-950 R676S): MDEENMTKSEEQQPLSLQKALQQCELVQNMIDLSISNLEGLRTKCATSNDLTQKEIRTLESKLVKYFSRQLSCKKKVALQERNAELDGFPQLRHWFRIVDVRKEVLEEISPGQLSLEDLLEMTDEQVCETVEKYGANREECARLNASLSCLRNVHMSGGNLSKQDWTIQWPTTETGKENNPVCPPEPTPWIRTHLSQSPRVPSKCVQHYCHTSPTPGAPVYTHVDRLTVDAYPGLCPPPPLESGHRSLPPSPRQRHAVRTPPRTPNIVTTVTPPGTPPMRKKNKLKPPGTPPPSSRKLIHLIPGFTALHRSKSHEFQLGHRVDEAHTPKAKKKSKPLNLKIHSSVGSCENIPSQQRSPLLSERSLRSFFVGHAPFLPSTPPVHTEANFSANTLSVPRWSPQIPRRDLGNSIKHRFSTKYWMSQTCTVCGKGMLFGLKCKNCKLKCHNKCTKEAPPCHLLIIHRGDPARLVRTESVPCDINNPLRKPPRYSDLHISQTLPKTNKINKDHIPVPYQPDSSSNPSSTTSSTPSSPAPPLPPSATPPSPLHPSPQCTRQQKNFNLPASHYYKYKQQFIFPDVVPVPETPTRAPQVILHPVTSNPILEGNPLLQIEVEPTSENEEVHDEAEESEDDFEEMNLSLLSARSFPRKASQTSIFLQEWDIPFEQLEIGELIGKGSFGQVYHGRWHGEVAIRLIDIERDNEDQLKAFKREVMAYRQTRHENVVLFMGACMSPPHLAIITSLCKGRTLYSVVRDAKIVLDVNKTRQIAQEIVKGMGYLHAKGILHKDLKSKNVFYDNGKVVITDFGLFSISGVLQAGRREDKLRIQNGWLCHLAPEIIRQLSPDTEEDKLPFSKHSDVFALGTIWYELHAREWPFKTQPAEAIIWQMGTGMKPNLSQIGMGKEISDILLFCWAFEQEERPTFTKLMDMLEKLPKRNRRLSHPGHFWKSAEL

382 unique human kinases [10] = molecular target: T10, 382 unique human kinases (Homo sapiens, UniProt P00519, F317I); details: ABL1 (F317I), [ATP] 5 µM, compound 10 uM; for remaining activity at 10 µM: read-out: % Enzyme Activity (relative to DMSO controls)
T10 construct: purchased Reaction Biology (HotSpot contract assay)
T10 sequence (P00519 whole entry F317I): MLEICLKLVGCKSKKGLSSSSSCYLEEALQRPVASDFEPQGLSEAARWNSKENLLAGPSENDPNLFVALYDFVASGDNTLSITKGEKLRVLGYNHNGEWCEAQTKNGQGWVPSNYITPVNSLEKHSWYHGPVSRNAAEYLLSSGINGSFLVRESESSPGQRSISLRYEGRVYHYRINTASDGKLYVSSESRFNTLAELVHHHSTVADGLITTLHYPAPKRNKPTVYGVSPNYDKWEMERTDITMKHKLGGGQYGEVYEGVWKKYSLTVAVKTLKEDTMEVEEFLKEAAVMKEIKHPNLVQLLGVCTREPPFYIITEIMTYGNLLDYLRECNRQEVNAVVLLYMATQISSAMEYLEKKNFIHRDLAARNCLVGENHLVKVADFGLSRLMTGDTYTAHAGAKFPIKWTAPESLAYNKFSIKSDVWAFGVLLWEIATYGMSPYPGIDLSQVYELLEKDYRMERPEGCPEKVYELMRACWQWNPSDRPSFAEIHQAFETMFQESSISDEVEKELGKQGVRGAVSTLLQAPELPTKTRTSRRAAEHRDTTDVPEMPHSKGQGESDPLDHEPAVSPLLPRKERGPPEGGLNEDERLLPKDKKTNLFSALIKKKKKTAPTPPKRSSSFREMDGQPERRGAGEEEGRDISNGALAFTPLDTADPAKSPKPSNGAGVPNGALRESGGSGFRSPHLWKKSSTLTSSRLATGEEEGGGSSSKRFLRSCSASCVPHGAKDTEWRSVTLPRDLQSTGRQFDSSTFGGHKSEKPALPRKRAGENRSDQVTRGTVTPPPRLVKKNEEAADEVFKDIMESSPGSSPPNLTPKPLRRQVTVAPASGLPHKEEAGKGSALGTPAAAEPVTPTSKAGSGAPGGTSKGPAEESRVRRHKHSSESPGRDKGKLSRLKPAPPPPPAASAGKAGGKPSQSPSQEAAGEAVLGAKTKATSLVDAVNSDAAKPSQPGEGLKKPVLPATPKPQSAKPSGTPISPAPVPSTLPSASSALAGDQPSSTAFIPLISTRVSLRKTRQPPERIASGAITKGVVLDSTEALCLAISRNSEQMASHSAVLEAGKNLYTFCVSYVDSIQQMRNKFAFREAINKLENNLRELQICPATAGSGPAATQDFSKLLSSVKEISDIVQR

[11] = kinase CDK5/p25, compound 10 uM

Structure (SMILES)	remaining activity at 10 µM (382 unique human kinases [1]; CDK5/p35, 10 uM)	remaining activity at 10 µM (382 unique human kinases [1]; [11])	remaining activity at 10 µM (382 unique human kinases [2])	remaining activity at 10 µM (382 unique human kinases [3])	remaining activity at 10 µM (382 unique human kinases [4])	remaining activity at 10 µM (382 unique human kinases [5])	remaining activity at 10 µM (382 unique human kinases [6])	remaining activity at 10 µM (382 unique human kinases [7])	remaining activity at 10 µM (382 unique human kinases [8])	remaining activity at 10 µM (382 unique human kinases [9])	remaining activity at 10 µM (382 unique human kinases [10])	further results
CC(C)c1cc(-c2n[nH]c(=O)n2-c2ccc3c(ccn3C)c2)c(O)cc1O [Ganetespib (STA9090)]	70.1%	80.9%	82.2%	79.1%	85.7%	60.1%	–	–	–	–	–	–
CC(C)c1cc(-c2n[nH]c(=O)n2-c2ccc3c(ccn3C)c2)c(O)cc1O [Ganetespib]	–	–	–	–	–	–	52.5%	98.3%	99.8%	93%	2.88%	–
CCNC(=O)c1noc(-c2cc(C(C)C)c(O)cc2O)c1-c1ccc(CN2CCOCC2)cc1 [Luminespib (AUY-922)]	103%	102%	105%	99.6%	95.4%	103%	–	–	–	–	–	% Enzyme Activity (relative to DMSO controls) (382 unique human kinases [1]; CDK5/p35, 10 uM): 102.70%; % Enzyme Activity (relative to DMSO controls) (382 unique human kinases [1]; [11]): 102.12%; % Enzyme Activity (relative to DMSO controls) (382 unique human kinases [2]): 99.56%; % Enzyme Activity (relative to DMSO controls) (382 unique human kinases [3]): 99.03%; % Enzyme Activity (relative to DMSO controls) (382 unique human kinases [4]): 95.04%; % Enzyme Activity (relative to DMSO controls) (382 unique human kinases [5]): 102.74%
CCNC(=O)c1noc(-c2cc(C(C)C)c(O)cc2O)c1-c1ccc(CN2CCOCC2)cc1 [Luminespib]	–	–	–	–	–	–	108%	97.2%	94.6%	96.8%	25.7%	% Enzyme Activity (relative to DMSO controls) (382 unique human kinases [6]): 105.75%; % Enzyme Activity (relative to DMSO controls) (382 unique human kinases [7]): 95.91%; % Enzyme Activity (relative to DMSO controls) (382 unique human kinases [8]): 93.40%; % Enzyme Activity (relative to DMSO controls) (382 unique human kinases [9]): 96.29%; % Enzyme Activity (relative to DMSO controls) (382 unique human kinases [10]): 24.59%
